Experimental findings from patent US10722500B2, “Gossypol 7-N-isatin Schiff base compounds with antitumor activities and a method of preparing the same” (SHAANXI PANLONG PHARMACEUTICAL GROUP LIMITED BY SHARE LTD., priority 2018, dated 2020) are described below.

Series [1] has as its system HepG2, A-549, SGC-7901 tumor cells. Nature of the series: MTT tumor cell proliferation inhibition test, summary over the three cell lines. The class given is cell-based, human. Conditions: the three cell lines tested. On the procedure:
(§1) The compounds of the present invention were subjected to tumor cell proliferation inhibition test, and conventional MTT method was used.
(§2) Cell lines: human hepatoma cells (HepG2), human lung cancer cells (A-549), human gastric cancer cells (SGC-7901). The culture medium was DMEM+15% NBS+double antibody.
(§3) Sample solution preparation: after dissolving with DMSO (Merck), PBS (−) was added to obtain 100 μmol/L solution or homogeneous suspension. The solution was diluted with PBS (−) in DMSO to a final concentration of 0.1, 1, 10, 20, 40, 60, 80, 100 μmol/L.
(§4) Gossypol was used as control solution, prepared under the same condition.
Cell culture: adherent growth Tumor cells were cultured in 1640 medium containing 10% inactivated neonatal bovine serum and penicillin, streptomycin (1 million U/L), placed in carbon dioxide incubator at 37° C., 5% CO2, and saturated humidity. Cells were treated serially passaged 2-3 times. The first culture was washed with PBS 2 times, and digested with trypsin. Fresh culture medium was added evenly, cells were adjusted to a appropriate concentration and transferred into a new culture flask. […]
Experimental Principle: Living cells mitochondria in the dehydrogenase can reduce yellow MTT to water-insoluble blue-violet product MT (MTT formazan), deposited in the cells. […] DMSO can dissolve blue violet crystals, and the color depth is proportional to the amount contained, so the absorbance measured by the microplate reader can reflect the cell viability.
Methods: The exponential phase cells were digested and counted and seeded in 96-well plates at a density of 2×10^4/mL at 100 μl per well. […] After 48 hours, the supernatant was discarded, and 100 μl of MTT ((2-(4,5-dimethyl-2-thiazolyl)-3,5-diphenyl-2H-[…]) (1 mg/mL) was added to each well. After another 4 hours, the supernatant was discarded, and 100 μl of DMSO was added to each well. After mixing, the absorbance was measured at 570 nm using a microplate reader. An IC50 calculation software was used to determine the half inhibitory concentration (IC50).

Series [2] has as its system human gastric cancer cells (SGC-7901). The experiment in a line: MTT tumor cell proliferation inhibition test, SGC-7901. Type of series: cell-based. Conditions: SGC-7901 cells, 48 hours treatment, read-out: Half Inhibitory Concentration IC50 SGC-7901. The procedure:
as §1, §2, §3, §4
(§5) Cell culture: adherent growth Tumor cells were cultured in 1640 medium containing 10% inactivated neonatal bovine serum and penicillin, streptomycin (1 million U/L), placed in carbon dioxide incubator at 37° C., 5% CO2, and saturated humidity. Cells were treated serially passaged 2-3 times. The first culture was washed with PBS 2 times, and digested with trypsin. Fresh culture medium was added evenly, cells were adjusted to a appropriate concentration and transferred into a new culture flask. Cell in an exponential phase were chosen for the tests.
(§6) MTT Assay for Cell Viability and IC50 Determination
(§7) Experimental Principle: Living cells mitochondria in the dehydrogenase can reduce yellow MTT to water-insoluble blue-violet product MT (MTT formazan), deposited in the cells. The amount of production is proportional to the number of living cells. […] DMSO can dissolve blue violet crystals, and the color depth is proportional to the amount contained, so the absorbance measured by the microplate reader can reflect the cell viability.
(§8) Methods: The exponential phase cells were digested and counted and seeded in 96-well plates at a density of 2×10^4/mL at 100 μl per well. After 24 hours of incubation, the cells to be tested were treated with 0.1, 1, 10, 20, 40, 60, 80, 100 μmol/L of the compounds. Each experimental group had 5 wells in each concentration, and the culture medium containing 0.4% DMSO was used as control. After 48 hours, the supernatant was discarded, and 100 μl of MTT ((2-(4,5-dimethyl-2-thiazolyl)-3,5-diphenyl-2H-[…]) (1 mg/mL) was added to each well. After another 4 hours, the supernatant was discarded, and 100 μl of DMSO was added to each well. After mixing, the absorbance was measured at 570 nm using a microplate reader. An IC50 calculation software was used to determine the half inhibitory concentration (IC50).

The test system of series [3] is human hepatoma cells (HepG2). Nature of the series: MTT tumor cell proliferation inhibition test, HepG2. Type of series: cell-based. As to conditions: read-out: Half Inhibitory Concentration IC50 HepG2. The procedure: as §1, §2, §3, §4, §5, §6, §7, §8
For series [4], the system named is human lung cancer cells (A-549). Nature of the series: MTT tumor cell proliferation inhibition test, A-549. Type of series: cell-based. As to conditions: A549 cells, 48 hours treatment, read-out: Half Inhibitory Concentration IC50 A549. On the procedure:
as §1, §2, §3, §4, §5, §6, §7, §8

[5] abbreviates: HepG2 cells, MTT, 48 hours treatment.

Where two headings read alike, the source gives them in different places.

As to `Cc1cc2c(C(C)C)c(O)c(O)c(/C=N/N=C3\C(=O)N(Cc4ccccc4)c4ncccc43)c2c(O)c1-c1c(C)cc2c(C(C)C)c(O)c(O)c(/C=N/N=C3/C(=O)N(Cc4ccccc4)c4ncccc43)c2c1O` [Compound 5, (3Z,3′E)-3,3′-(((1E,1′E)-(1,1′,6,6′,7,7′-hexahydroxy-5,5′-diisopropyl-3,3′-dimethyl-[2,2′-binaphthalene]-8,8′-diyl)bis(methanylylidene))bis(hydrazine-2,1-diylidene))bis(1-benzyl-1,3-dihydro-2H-pyrrolo[2,3-b]pyridin-2-one)], in series [1], the “antitumor activities (in words)” value is on record as “excellent antitumor activities”. The values for the IC50 in series [2], in series [3] (setting [5]) and in series [4] were 12.3 ± 1.43 µM, 7.94 ± 0.85 µM and 10.1 ± 1.33 µM, respectively.

`Cc1cc2c(C(C)C)c(O)c(O)c(/C=N/N=C3\C(=O)N(C)c4ncccc43)c2c(O)c1-c1c(C)cc2c(C(C)C)c(O)c(O)c(/C=N/N=C3/C(=O)N(C)c4ncccc43)c2c1O` [Compound 2, (3Z,3′E)-3,3′-(((1E,1′E)-(1,1′,6,6′,7,7′-hexahydroxy-5,5′-diisopropyl-3,3′-dimethyl-[2,2′-binaphthalene]-8,8′-diyl)bis(methanylylidene))bis(hydrazine-2,1-diylidene))bis(1-methyl-1,3-dihydro-2H-pyrrolo[2,3-b]pyridin-2-one)]: the “antitumor activities (in words)” value in series [1] is reported as “good activities”. The results for the IC50 in series [2], in series [3] (setting [5]) and in series [4] were over 100 µM, 12.5 ± 2.39 µM and 11.2 ± 2.26 µM, respectively.

On to `CCN1C(=O)/C(=N\N=C\c2c(O)c(O)c(C(C)C)c3cc(C)c(-c4c(C)cc5c(C(C)C)c(O)c(O)c(/C=N/N=C6/C(=O)N(CC)c7ncccc76)c5c4O)c(O)c23)c2cccnc21` [Compound 3, (3Z,3′E)-3,3′-(((1E,1′E)-(1,1′,6,6′,7,7′-hexahydroxy-5,5′-diisopropyl-3,3′-dimethyl-[2,2′-binaphthalene]-8,8′-diyl)bis(methanylylidene))bis(hydrazine-2,1-diylidene))bis(1-ethyl-1,3-dihydro-2H-pyrrolo[2,3-b]pyridin-2-one)], for which the “antitumor activities (in words)” value in series [1] is listed as “good activities”. The values for the IC50 in series [2], in series [3] (setting [5]) and in series [4] were 13.4 ± 1.51 µM, 9.92 ± 0.79 µM and 17.4 ± 0.79 µM, respectively.

As for `CON1C(=O)/C(=N\N=C\c2c(O)c(O)c(C(C)C)c3cc(C)c(-c4c(C)cc5c(C(C)C)c(O)c(O)c(/C=N/N=C6/C(=O)N(OC)c7ncccc76)c5c4O)c(O)c23)c2cccnc21` [Compound 6, (3Z,3′E)-3,3′-(((1E,1′E)-(1,1′,6,6′,7,7′-hexahydroxy-5,5′-diisopropyl-3,3′-dimethyl-[2,2′-binaphthalene]-8,8′-diyl)bis(methanylylidene))bis(hydrazine-2,1-diylidene))bis(1-methoxy-1,3-dihydro-2H-pyrrolo[2,3-b]pyridin-2-one)], the melting point came out at 201.9 °C. For the same compound, the IC50 in series [2] was over 100 µM. Besides, the IC50 in series [3] (setting [5]) is over 100 µM. Moreover, the IC50 in series [4] was 62.9 ± 2.15 µM.

Regarding `Cc1cc2c(C(C)C)c(O)c(O)c(C=O)c2c(O)c1-c1c(C)cc2c(C(C)C)c(O)c(O)c(C=O)c2c1O` [Gossypol], in series [3] (HepG2, 48 h), the IC50 was determined as 955 ± 0.41 µM.

`Cc1cc2c(C(C)C)c(O)c(O)c(/C=N/N=C3\C(=O)Nc4ncccc43)c2c(O)c1-c1c(C)cc2c(C(C)C)c(O)c(O)c(/C=N/N=C3/C(=O)Nc4ncccc43)c2c1O` [Compound 1, (3Z,3′E)-3,3′-(((1E,1′E)-(1,1′,6,6′,7,7′-hexahydroxy-5,5′-diisopropyl-3,3′-dimethyl-[2,2′-binaphthalene]-8,8′-diyl)bis(methanylylidene))bis(hydrazine-2,1-diylidene))bis(1,3-dihydro-2H-pyrrolo[2,3-b]pyridin-2-one)] came in with a melting point of 186.5 °C. In addition, the IC50 in series [2] was over 100 µM. Moreover, in series [3] (setting [5]), the IC50 was over 100 µM. The IC50 in series [4] was over 100 µM.

Consider `Cc1cc2c(C(C)C)c(O)c(O)c(/C=N/N=C3\C(=O)N(C(C)C)c4ncccc43)c2c(O)c1-c1c(C)cc2c(C(C)C)c(O)c(O)c(/C=N/N=C3/C(=O)N(C(C)C)c4ncccc43)c2c1O` [Compound 4, (3Z,3′E)-3,3′-(((1E,1′E)-(1,1′,6,6′,7,7′-hexahydroxy-5,5′-diisopropyl-3,3′-dimethyl-[2,2′-binaphthalene]-8,8′-diyl)bis(methanylylidene))bis(hydrazine-2,1-diylidene))bis(1-isopropyl-1,3-dihydro-2H-pyrrolo[2,3-b]pyridin-2-one)], for which the melting point turned out to be 209.1 °C. Further, in series [2], the IC50 is over 100 µM. Besides, the IC50 in series [3] (setting [5]) was over 100 µM. Besides, in series [4], the IC50 turned out to be 74.1 ± 3.46 µM.
